Data taken from patent US12016880B2, “Halogen treatment of heart attack and ischemic injury” (Fred Hutchinson Cancer Center, priority 2014, dated 2024).

Legend:
hypoxic injuries = details: mice and rats; PCT Publication No. WO2005/041655; cited from earlier work
[1] = Oxidation of selenide in water or glutathione solution (visual darkening); type: physicochemical; details: 50 mM selenide in 150 mM GSH vs in water, 8 minutes immediately following preparation
Method: The photographs show samples of 50 mM selenide in either water (FIG. 5A) or 150 mM GSH (FIG. 5B) over the eight minutes immediately following preparation.

[2] = tested on: peripheral blood mononuclear cells (PBMC); assay: Mixed lymphocyte culture, tritiated thymidine incorporation; type: cell-based; details: 5 days culture, 18 hours pulse
Method: In particular embodiments, immunosuppression induced by halogen or chalcogenide compounds is assessed by measuring T cell proliferation, e.g., in response to activated antigen presenting cells. Essentially a mixed lymphocyte reaction, this assay exploits that fact that T cell exposure to presented antigens result in T cell activation and proliferation, as well as supportive increases in DNA synthesis. […] Irradiation results in the presentation of numerous antigens to antigen presenting cells, thus the irradiated cells serve as potent activators of T cells. By mixing the irradiated cells with the non-irradiated cells, strong T cell proliferation will occur. This proliferation can be measured using any proliferation assay, as would be commonly known to the skilled artisan. In one embodiment, proliferation is assessed by measuring DNA synthesis. Mixed PBMC were cultured in the presence or absence of halogen or chalcogenide compounds for 5 days, and then pulsed with tritiated thymidine for 18 hours to label newly synthesized DNA. The degree of labeling is directly correlated with the degree of T cell activation, thus low levels of labeling correlate with immunosuppression.
PBMC were either irradiated with 3500 rads (Ax and Bx) or not (A and B). […] Cells were lysed, the lysate filtered to trap the DNA on the filter and the filters counted in a scintillation counter. […]

[3] = tested on: mouse model of heart attack; assay: Mouse LAD ligation ischemia/reperfusion, NaI i.v. before reperfusion, infarct size by morphometry; type: in vivo
Method: In order to examine the effect of NaI on myocardial infarct size in a mouse model of heart attack, open chest ligation of the left descending coronary artery (LAD ligation) was performed in mice. At 55 minutes post initiation of ischemia, either vehicle (saline) or test agent (NaI) was injected into the femoral vein of each mouse. The heart muscle was reperfused by releasing the ligature at 60 minutes post initiation of ischemia. After 2 hours of reperfusion, infarct size was measured by morphometry (FIG. 1). Five groups of mice were utilized in this study, including a saline vehicle group (n=3) and […] test groups that received 0.25 mg/kg (n=4), 0.5 mg/kg (n=5), 1 mg/kg (n=5), or 2 mg/kg (n=6) of NaI. To be certain that all animals in the study were treated in a similar way, the area at risk (AAR) as a proportion of the left ventricle was determined (FIG. 1). Area at risk (AAR) and infarct size (Inf) were measured using the specific dyes TTC and Evans blue. Processed images were generated in an unbiased way by setting constant thresholds and allowing Photoshop® to generate the images that were quantitated to generate the data presented in FIG. 1.
An additional test was performed under the same conditions but using an expanded range of concentration of NaI.

[4] = tested on: mouse model of heart attack; assay: Mouse LAD ligation, NaI i.v. pretreatment before ischemia, infarct size by morphometry; type: in vivo
Method: To determine whether pretreatment with NaI prior to heart attack improves heart attack outcome, open chest ligation experiments were performed in mice where either vehicle (saline) or test agent (NaI) was injected into the femoral vein of each mouse either 5 minutes or 48 hours before initiation of ischemia. Open chest ligation of the left descending coronary artery (LAD ligation) was then performed, and the heart muscle was reperfused by releasing the ligature at 60 minutes post initiation of ischemia. After 2 hours of reperfusion, infarct size was measured by morphometry as described above (FIG. 3). Three groups of mice were utilized in this study, including a saline vehicle group (n=1) and two test groups that received 1 mg/kg NaI 5 minutes before LAD ligation (n=4) or 1 mg/kg NaI 48 hours before LAD ligation (n=1).

[5] = tested on: mouse model of heart attack; assay: Transthoracic echocardiography of left ventricle after myocardial ischemia and reperfusion; type: in vivo; details: FIG. 4; single intravenous administration two days prior to ligation-induced ischemia
Method: For each of the sets of bars for Ejection Fraction and Fractional Shortening, the bars from left to right correspond to the bars from top to bottom shown in the legend.
In vivo transthoracic echocardiography of the left ventricle (LV) using a 30-MHz RMV scanhead interfaced with a Vevo 770 (Visualsonics) was performed, and two-dimensional echocardiography images were obtained. LV end-diastolic diameter (EDD) and LV end-systolic diameter (ESD) were measured at a day before for a baseline and one and 4 weeks after myocardial ischemia and reperfusion. LV percent fractional shortening (FS) and LV ejection fraction (EF) were calculated.

[6] = tested on: mouse model of heart attack; assay: Mouse LAD ligation after two days of drinking water containing NaI, infarct size; type: in vivo
Method: In order to examine the effect of pre-treatment with drinking water containing NaI on myocardial infarct size in a mouse model of heart attack, three groups of mice were provided with drinking water containing various concentrations of iodide to achieve dosages of 0.07 mg/kg/day (normal drinking water) for the first group; 0.77 mg/kg/day for the second group; or 7.07 mg/kg/day for the third group, for two days immediately prior to open chest ligation of the left descending coronary artery (LAD ligation) to initiate ischemia. A fourth group of mice was provided with normal drinking water for the two days prior to the initiation of ischemia, but at 55 minutes post initiation of ischemia, either vehicle (saline) or test agent (NaI) was injected into the femoral vein of each of these mice. […] After two hours of reperfusion, infarct size was measured by morphometry (FIG. 1). To be certain that all animals in the study were treated in a similar way, the area at risk (AAR) as a proportion of the left ventricle was determined (FIG. 8). Area at risk (AAR) and infarct size (Inf) were measured using the specific dyes TTC and Evans blue. Processed images were generated in an unbiased way by setting constant thresholds and allowing Photoshop® to generate the images that were quantitated to generate the data presented in FIG. 8.

[7] = tested on: mouse model of chronic heart failure; assay: Mouse chronic heart failure after LAD ligation, iodide in drinking water, echocardiography; type: in vivo; details: drinking water 0.77 mg/kg/day iodide from LAD ligation for 12 weeks vs normal drinking water
Method: In order to examine the effect of drinking water containing NaI on chronic heart failure following heart attack in a mouse model, two groups of mice were provided with drinking water lacking iodide or drinking water containing 0.77 mg/kg/day iodide starting immediately following open chest ligation of the left descending coronary artery (LAD ligation) to initiate ischemia, and continuing until the end of the study, which lasted 12 weeks. Prior to the LAD ligation and at 1 week, 2 weeks, 4 weeks, 8 weeks, and 12 weeks following the LAD ligation, mice were examined by echocardiography to determine their left ventricle ejection fraction and their left ventricle fractional shortening.

[8] = tested on: rat model of acute myocardial infarction (AMI); assay: Rat acute myocardial infarction (30 min LAD occlusion), plasma cTpnI and infarct size; type: in vivo; details: 1 mg/kg i.v. bolus, vs placebo
Method: Male CD®, IGS Rats (300-450 g) were subjected to 30 minutes of LAD occlusion followed by 24-30 hrs of reperfusion. 200-400 uL of blood was drawn at 4 and 24¬30 hrs post-reperfusion for plasma cTpnI measurements by EIA. After the 24-30 hr blood draw, the LAD was re-occluded, and the heart was excised following i.v. administration of Evans Blue. The hearts were frozen overnight, sectioned, and stained with triphenyl tetrazolium chloride for subsequent blinded infarct analysis.
Rats were anesthetized with a ketamine/xylazine mixture (100 mg/kg and 10 mg/kg, respectively) and maintained under 2-3% isoflurane in 100% medical oxygen after intubation with a 16 gauge angiocatheter sheath (Terumo® Surflo i.v. catheter, 16G×2″, VWR Cat. #TESR-OX1651CA). Animals were ventilated using a Harvard Apparatus Model 683 small animal ventilator equipped with a 5 cc cylinder at a tidal volume of 1.5-2.0 mL/stroke and a respiratory rate of 105 strokes/min. With the rat lying on its right side, animal fur was removed from the surgical area with clippers and then cleaned with alcohol pads. The heart beat was visualized through the chest wall and a dorsoventral incision in the left chest wall was made directly over the beating heart. The underlying fascia was dissected away to reveal the ribs and intercostal muscles. […]

## sulfide
Hypoxic injuries
  metabolism and protection from hypoxic injuries: can reduce metabolism and protect mice and rats from hypoxic injuries

## selenide
[1]
  oxidation of selenide (dark oxidized forms): reduced levels of oxidation at each time point
[2]; all concentrations
  tritiated thymidine labeling (DNA synthesis): reduced the labeling to control levels

## [I-].[Na+] [NaI, sodium iodide]
[3]; NaI 0.25, 0.5, 1 or 2 mg/kg into femoral vein at 55 minutes of ischemia, 2 hours of reperfusion, vs saline group (FIG. 1)
  infarct size (morphometry): statistically significant decreases in infarct size
[3]; additional test, same conditions, expanded range of concentration of NaI, vs saline group (FIG. 2)
  infarct size (morphometry): statistically significant decreases in infarct size
[3]; each dosage tested (0.25-2 mg/kg NaI i.v. at 55 minutes of ischemia)
  reduction in infarct size in comparison to vehicle alone: approximately 70%
[4]; 1 mg/kg NaI i.v. 5 minutes or 48 hours before LAD ligation, vs saline group (FIG. 3)
  infarct size (morphometry): statistically significant decreases in infarct size
[4]; pre-treatment 1 mg/kg NaI 5 minutes or 48 hours before LAD ligation
  reduction in infarct size in comparison to vehicle alone: approximately 70%
[5]
  protective effect by echocardiography (LV ejection fraction, fractional shortening): protective effect of NAI was confirmed by echocardiography
[2]; highest concentration
  tritiated thymidine labeling (DNA synthesis): reduced the amount of labeling
[6]; drinking water 0.77 or 7.07 mg/kg/day for two days prior to LAD ligation vs normal water (0.07 mg/kg/day)
  infarct size (morphometry): statistically significant decreases in infarct size
[6]; drinking water pre-treatment for two days
  decrease in infarct size compared with iodide i.v. at the time of reperfusion: somewhat less or comparable
[7]
  left ventricle ejection fraction: statistically significant increases
  left ventricle fractional shortening: statistically significant increases
[8]; 4 and 24 hr
  plasma troponin levels (cTpnI): consistently lower
[8]; 24 hrs
  infarct size: smaller
